This experiment has as its system nuclear pores and importin β1. Description: NEI-associated late endosomes and transfer of EV-derived components into the nucleoplasm after importazole treatment. Format: cell-based. The source says: Referring to FIGS. 1A, 1B and 1C, illustrated are schematic illustrations of data showing the localization and the tripartite structure of a VOR complex. […] Typically, EVs are transported to late endosomes after their endocytosis, wherein the EVs facilitate intercellular communication in diverse cellular processes.

SMILES strings stand for the structures.

Take `CC(Nc1nc(N2CCCC2)nc2ccccc12)c1ccccc1` (centres unmarked) [importazole]: the “transfer of EV-derived components into the nucleoplasm of host cells” value was “inhibition of transfer of EV-derived components into the nucleoplasm of host cells”. Further, under “host cells after importazole treatment”, the “presence of nuclear envelope invagination (NEI)-associated late endosomes” value is “lack of the nuclear envelope invagination (NEI)-associated late endosomes”.

The record behind these values is patent publication US12527789B2, “Inhibition of a tripartite VOR protein complex in multicellular organisms” (TECHNISCHE UNIVERSITÄT DRESDEN, priority 2018, dated 2026).
